From ChEMBL document CHEMBL5370655
Activity calls are given as the source filed them. The calls are words filed in the database; no cut-off is given here.

Assays:
[1] = Toxicity in BALB/c mouse xenografted with human H1975-TM cells assessed as appearance of lesions in lung at 25 to 100 mg/kg, po measured after 25 days by hematoxylin-eosin staining based analysis; assay type: organism-based; details: in vivo, 600 h, dose 25-100 mg/kg, time 25 day
[2] = molecular target: Epidermal growth factor receptor (Homo sapiens, UniProt P00533, L858R)
Chain of Epidermal growth factor receptor (Homo sapiens, UniProt P00533, L858R) (P00533 25-1210 L858R limits assumed): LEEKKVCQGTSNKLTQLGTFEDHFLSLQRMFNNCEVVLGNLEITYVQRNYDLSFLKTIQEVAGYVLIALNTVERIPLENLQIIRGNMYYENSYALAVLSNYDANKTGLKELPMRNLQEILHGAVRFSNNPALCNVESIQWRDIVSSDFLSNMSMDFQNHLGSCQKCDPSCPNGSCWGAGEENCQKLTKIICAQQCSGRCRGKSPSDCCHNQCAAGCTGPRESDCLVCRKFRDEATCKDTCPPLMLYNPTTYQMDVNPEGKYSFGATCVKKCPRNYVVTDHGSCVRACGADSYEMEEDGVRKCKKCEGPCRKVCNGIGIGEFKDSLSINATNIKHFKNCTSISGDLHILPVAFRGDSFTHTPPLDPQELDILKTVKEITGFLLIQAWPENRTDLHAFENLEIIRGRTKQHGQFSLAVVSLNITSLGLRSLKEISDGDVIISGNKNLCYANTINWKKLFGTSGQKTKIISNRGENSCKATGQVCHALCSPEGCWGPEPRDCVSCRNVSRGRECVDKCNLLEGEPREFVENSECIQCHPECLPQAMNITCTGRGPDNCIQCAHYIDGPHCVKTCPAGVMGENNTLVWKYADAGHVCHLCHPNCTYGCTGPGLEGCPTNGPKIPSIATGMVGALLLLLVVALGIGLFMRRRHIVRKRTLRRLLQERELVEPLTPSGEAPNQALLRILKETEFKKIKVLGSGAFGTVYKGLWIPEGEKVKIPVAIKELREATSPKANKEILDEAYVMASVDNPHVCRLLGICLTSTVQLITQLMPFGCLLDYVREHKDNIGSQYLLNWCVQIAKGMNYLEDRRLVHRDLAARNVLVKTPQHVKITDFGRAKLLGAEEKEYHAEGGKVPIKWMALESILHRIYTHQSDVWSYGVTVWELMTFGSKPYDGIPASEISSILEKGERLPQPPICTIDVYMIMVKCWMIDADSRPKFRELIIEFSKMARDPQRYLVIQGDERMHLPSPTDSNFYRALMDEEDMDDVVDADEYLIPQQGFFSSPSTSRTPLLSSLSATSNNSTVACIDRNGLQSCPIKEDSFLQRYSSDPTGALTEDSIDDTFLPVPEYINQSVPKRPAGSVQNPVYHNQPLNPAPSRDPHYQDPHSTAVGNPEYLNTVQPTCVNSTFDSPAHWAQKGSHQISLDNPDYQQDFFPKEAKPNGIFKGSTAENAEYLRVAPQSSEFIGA

[3] = system: NCI-H1975; test: Antiproliferative activity against human NCI-H1975 cells assessed as inhibition of cell growth measured after 72 hrs by CCK8 assay; assay type: functional, cell-based; details: NCI-H1975, 72 h
[4] = molecular target: T1, Epidermal growth factor receptor (Homo sapiens, UniProt P00533, C797S/L858R/T790M)
T1 sequence (P00533 25-1210 T790M/C797S/L858R limits assumed): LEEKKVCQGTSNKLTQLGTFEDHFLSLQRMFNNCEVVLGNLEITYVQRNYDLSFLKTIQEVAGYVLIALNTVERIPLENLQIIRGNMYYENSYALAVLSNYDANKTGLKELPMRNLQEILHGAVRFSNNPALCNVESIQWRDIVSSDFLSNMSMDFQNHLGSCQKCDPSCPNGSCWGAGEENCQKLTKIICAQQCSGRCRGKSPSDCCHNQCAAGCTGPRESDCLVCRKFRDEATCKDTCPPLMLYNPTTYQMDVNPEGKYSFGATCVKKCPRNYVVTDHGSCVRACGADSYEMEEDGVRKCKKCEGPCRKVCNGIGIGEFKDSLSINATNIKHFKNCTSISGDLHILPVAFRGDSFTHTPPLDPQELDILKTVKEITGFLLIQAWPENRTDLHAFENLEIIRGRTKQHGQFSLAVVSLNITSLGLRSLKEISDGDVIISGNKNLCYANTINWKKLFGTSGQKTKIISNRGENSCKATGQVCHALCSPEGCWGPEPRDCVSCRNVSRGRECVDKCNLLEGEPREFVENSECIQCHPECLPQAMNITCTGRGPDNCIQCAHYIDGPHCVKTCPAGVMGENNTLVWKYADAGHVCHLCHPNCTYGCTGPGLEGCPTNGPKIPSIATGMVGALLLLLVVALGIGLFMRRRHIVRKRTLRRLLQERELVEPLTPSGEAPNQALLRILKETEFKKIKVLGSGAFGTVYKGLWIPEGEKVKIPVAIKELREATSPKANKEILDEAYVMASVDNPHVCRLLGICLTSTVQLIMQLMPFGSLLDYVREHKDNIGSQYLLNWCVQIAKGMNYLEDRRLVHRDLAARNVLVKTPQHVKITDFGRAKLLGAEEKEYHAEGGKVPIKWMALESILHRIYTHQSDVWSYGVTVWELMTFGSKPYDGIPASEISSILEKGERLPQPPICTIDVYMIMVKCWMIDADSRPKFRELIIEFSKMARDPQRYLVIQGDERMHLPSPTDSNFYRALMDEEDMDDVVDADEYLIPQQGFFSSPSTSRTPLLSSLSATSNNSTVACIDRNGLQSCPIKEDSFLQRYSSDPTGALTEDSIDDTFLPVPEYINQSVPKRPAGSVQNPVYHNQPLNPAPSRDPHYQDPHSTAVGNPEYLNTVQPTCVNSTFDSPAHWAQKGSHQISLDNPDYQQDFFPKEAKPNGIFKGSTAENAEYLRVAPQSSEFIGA

[5] = Toxicity in BALB/c mouse xenografted with human H1975-TM cells assessed as appearance of lesions in heart at 25 to 100 mg/kg, po measured after 25 days by hematoxylin-eosin staining based analysis; assay type: organism-based; details: in vivo, 600 h, dose 25-100 mg/kg, time 25 day
[6] = Half life in Sprague-Dawley rat at 5 mg/kg, iv measured upto 24 hrs by HPLC-MS/MS analysis; assay type: ADME, organism-based; details: in vivo
[7] = Cmax in Sprague-Dawley rat at 5 mg/kg, iv measured upto 24 hrs by HPLC-MS/MS analysis; assay type: ADME, organism-based; parameters: time < 24 hrs, dose 5 mg/kg, route iv; details: in vivo
[8] = Inhibition of colony formation in human H1975-TM cells at 250 nM incubated for 10 days by crystal violet staining based analysis; assay type: functional; details: time 10 day
[9] = system: A-431; test: Antiproliferative activity against human A-431 cells assessed as inhibition of cell growth measured after 72 hrs by CCK8 assay; assay type: functional, cell-based; details: A-431, 72 h
[10] = Induction of cell cycle arrest in human H1975-TM cells assessed as accumulation at G0/G1 phase at 50 nM measured after 24 hrs by RNase A/propidium iodide staining based flow cytometric analysis (reference value: 64.3 %); assay type: functional
[11] = Toxicity in BALB/c mouse xenografted with human H1975-TM cells assessed as appearance of lesions in liver at 25 to 100 mg/kg, po measured after 25 days by hematoxylin-eosin staining based analysis; assay type: organism-based; details: in vivo, 600 h, dose 25-100 mg/kg, time 25 day
[12] = molecular target: T1, Epidermal growth factor receptor; remark: listed apart in the source
[13] = Antitumor activity against human H1975-TM cells xenografted in BALB/c mouse assessed as tumor growth inhibition at 100 mg/kg, po measured after 25 days; assay type: functional; details: time 25 day
[14] = Half life in Sprague-Dawley rat at 50 mg/kg, po measured upto 24 hrs by HPLC-MS/MS analysis; assay type: ADME, organism-based; details: in vivo
[15] = system: PC-9; test: Antiproliferative activity against human PC-9 cells assessed as inhibition of cell growth measured after 72 hrs by CCK8 assay; assay type: functional, cell-based; details: PC-9, 72 h
[16] = Induction of cell cycle arrest in human H1975-TM cells assessed as accumulation at G0/G1 phase at 250 nM measured after 24 hrs by RNase A/propidium iodide staining based flow cytometric analysis (reference value: 64.3 %); assay type: functional
[17] = molecular target: Epidermal growth factor receptor (Homo sapiens, UniProt P00533, C797S/EX19DEL/T790M)
Chain of Epidermal growth factor receptor (Homo sapiens, UniProt P00533, C797S/EX19DEL/T790M) (P00533 whole entry, looked up, stated change not applied): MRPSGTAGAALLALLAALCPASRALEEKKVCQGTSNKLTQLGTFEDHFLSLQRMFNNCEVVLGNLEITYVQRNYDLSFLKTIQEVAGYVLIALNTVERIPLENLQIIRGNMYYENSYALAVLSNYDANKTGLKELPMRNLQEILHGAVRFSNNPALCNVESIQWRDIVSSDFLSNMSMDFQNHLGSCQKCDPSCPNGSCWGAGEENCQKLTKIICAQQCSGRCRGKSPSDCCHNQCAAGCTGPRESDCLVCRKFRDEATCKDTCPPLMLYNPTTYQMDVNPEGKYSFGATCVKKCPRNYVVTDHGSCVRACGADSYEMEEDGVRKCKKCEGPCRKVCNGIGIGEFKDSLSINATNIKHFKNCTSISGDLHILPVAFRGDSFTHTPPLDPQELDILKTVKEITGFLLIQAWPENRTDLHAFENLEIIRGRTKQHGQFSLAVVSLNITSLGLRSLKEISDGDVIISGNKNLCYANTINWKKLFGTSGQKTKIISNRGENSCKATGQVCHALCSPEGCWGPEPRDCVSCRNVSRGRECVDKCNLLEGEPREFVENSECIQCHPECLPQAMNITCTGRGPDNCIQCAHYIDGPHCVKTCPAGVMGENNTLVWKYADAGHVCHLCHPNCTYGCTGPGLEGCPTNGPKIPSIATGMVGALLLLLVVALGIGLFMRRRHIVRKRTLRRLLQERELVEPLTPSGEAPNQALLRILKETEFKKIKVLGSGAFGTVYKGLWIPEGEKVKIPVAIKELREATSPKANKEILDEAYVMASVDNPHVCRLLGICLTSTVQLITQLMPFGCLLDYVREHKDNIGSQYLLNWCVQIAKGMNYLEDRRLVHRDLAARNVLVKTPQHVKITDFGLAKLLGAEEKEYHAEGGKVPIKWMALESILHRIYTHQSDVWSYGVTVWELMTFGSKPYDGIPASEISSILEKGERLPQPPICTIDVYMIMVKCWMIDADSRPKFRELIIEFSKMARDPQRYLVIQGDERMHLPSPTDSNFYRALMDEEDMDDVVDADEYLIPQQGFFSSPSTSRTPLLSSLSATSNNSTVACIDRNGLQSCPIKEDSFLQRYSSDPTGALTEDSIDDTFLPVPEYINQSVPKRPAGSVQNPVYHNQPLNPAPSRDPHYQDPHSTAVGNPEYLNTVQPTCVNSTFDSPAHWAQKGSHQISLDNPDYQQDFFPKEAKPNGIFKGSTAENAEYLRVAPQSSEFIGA

[18] = Induction of cell cycle arrest in human H1975-TM cells assessed as accumulation at G2/M phase at 50 nM measured after 24 hrs by RNase A/propidium iodide staining based flow cytometric analysis (reference value: 17.6 %); assay type: functional
[19] = Oral bioavailability in Sprague-Dawley rat at 50 mg/kg measured upto 24 hrs by HPLC-MS/MS analysis; assay type: ADME, organism-based; details: in vivo
[20] = system: H1975-TM; details: Homo sapiens, dose 10-500 nM, time 10.0 day
[21] = system: H1975-TM; test: Downregulation of AKT level in human H1975-TM cells at 50 to 1000 nM measured after 24 hrs by Western blot analysis; assay type: functional, cell-based; details: dose 50-1000 nM
[22] = Toxicity in BALB/c mouse xenografted with human H1975-TM cells assessed as change in body weight at 25 to 100 mg/kg, po measured after 25 days; assay type: organism-based; details: in vivo, 600 h, dose 25-100 mg/kg, time 25 day
[23] = Induction of apoptosis in human H1975-TM cells assessed as apoptotic cells at 500 nM measured after 24 by Annexin V-FITC and propidium iodide staining based flow cytometric analysis (reference value: 7.08 %); assay type: functional; details: time 24 hrs
[24] = system: H1975-TM; test: Downregulation of EGFR phosphorylation in human H1975-TM cells at 50 to 1000 nM measured after 24 hrs by Western blot analysis; assay type: functional, cell-based; details: dose 50-1000 nM
[25] = Tmax in Sprague-Dawley rat at 5 mg/kg, iv measured upto 24 hrs by HPLC-MS/MS analysis; assay type: ADME, organism-based; details: in vivo
[26] = MRT (0 to infinity) in Sprague-Dawley rat at 5 mg/kg, iv measured upto 24 hrs by HPLC-MS/MS analysis; assay type: ADME, organism-based; details: in vivo
[27] = Cmax in Sprague-Dawley rat at 50 mg/kg, po measured upto 24 hrs by HPLC-MS/MS analysis; assay type: ADME, organism-based; parameters: dose 50 mg/kg, time < 24 hrs, route po; details: in vivo
[28] = Induction of apoptosis in human H1975-TM cells assessed as apoptotic cells at 50 nM measured after 24 by Annexin V-FITC and propidium iodide staining based flow cytometric analysis (reference value: 7.08 %); assay type: functional; details: time 24 hrs
[29] = MRT (0 to infinity) in Sprague-Dawley rat at 50 mg/kg, po measured upto 24 hrs by HPLC-MS/MS analysis; assay type: ADME, organism-based; details: in vivo
[30] = Tmax in Sprague-Dawley rat at 50 mg/kg, po measured upto 24 hrs by HPLC-MS/MS analysis; assay type: ADME, organism-based; details: in vivo
[31] = system: H1975-TM; test: Downregulation of ERK level in human H1975-TM cells at 50 to 1000 nM measured after 24 hrs by Western blot analysis; assay type: functional, cell-based; details: dose 50-1000 nM
[32] = Antitumor activity against human H1975-TM cells xenografted in BALB/c mouse assessed as tumor growth inhibition at 25 mg/kg, po measured after 25 days; assay type: functional; details: time 25 day
[33] = AUC (0 to infinity) in Sprague-Dawley rat at 5 mg/kg, iv measured upto 24 hrs by HPLC-MS/MS analysis; assay type: ADME, organism-based; parameters: dose 5 mg/kg, time < 24 hrs, route iv; details: in vivo
[34] = Induction of cell cycle arrest in human H1975-TM cells assessed as accumulation at S phase at 50 nM measured after 24 hrs by RNase A/propidium iodide staining based flow cytometric analysis (reference value: 18.1 %); assay type: functional
[35] = AUC (0 to infinity) in Sprague-Dawley rat at 50 mg/kg, po measured upto 24 hrs by HPLC-MS/MS analysis; assay type: ADME, organism-based; parameters: dose 50 mg/kg, time < 24 hrs, route po; details: in vivo
[36] = system: PC-9; assay type: functional, cell-based; details: Homo sapiens, PC-9, 72 h
[37] = molecular target: Epidermal growth factor receptor (Homo sapiens, UniProt P00533)
Chain of Epidermal growth factor receptor (Homo sapiens, UniProt P00533) (P00533 whole entry): as the sequence (P00533 whole entry, looked up, stated change not applied) above
Description: Inhibition of wild-type EGFR (unknown origin) using polyE4Y1 as substrate incubated for 5 mins with compound followed by substrate addition measured after 60 mins in presence of ATP by ADP-Glo reagent based assay

[38] = Induction of cell cycle arrest in human H1975-TM cells assessed as accumulation at G2/M phase at 250 nM measured after 24 hrs by RNase A/propidium iodide staining based flow cytometric analysis (reference value: 17.6 %); assay type: functional

- IC50 [2]: 3 nM
- IC50 [3]: 210 nM
- IC50 [4]: 5.1 nM
- half-life [6]: 4.7 h
- Cmax [7]: 761 ng/mL
- IC50 [9]: 1400 nM
- IC50 [12]: 261 nM
- half-life [14]: 8.49 h
- IC50 [15]: 5 nM
- IC50 [17]: 33 nM
- bioavailability [19]: 30.7%
- Tmax [25]: 4.8 min
- MRT inf [26]: 4.37 h
- Cmax [27]: 404 ng/mL
- MRT inf [29]: 5.43 h
- Tmax [30]: 2 h
- AUC(0-inf) [33]: 1560 ng·h/mL
- AUC(0-inf) [35]: 4780 ng·h/mL
- IC50 [36]: 30 nM
- IC50 [37]: 106 nM
Compound: CCS(=O)(=O)N1CCC(c2nc(-c3ccc(F)cc3)c(-c3ccnc(Nc4ccc5c(ccn5CCN(C)C)c4)n3)s2)CC1
- Activity [1]: Non-Toxic
- Activity [5]: Non-Toxic
- inhibition (INH) [8]: 100%
- Activity [10]: 68.3%
- Activity [11]: Non-Toxic
- TGI [13]: 62.9%
- Activity [16]: 70.3%
- Activity [18]: 14.4%
- inhibition [20]: Dose-Dependent Effect
- Activity [21]: Active
- Activity [22]: Non-Toxic
- Activity [23]: 27.8%
- Activity [24]: Active
- Activity [28]: 19.07%
- Activity [31]: Active
- TGI [32]: 47.5%
- Activity [34]: 17.3%
- Activity [38]: 14%
